Patent US11142515B2, “Pyrazolyl-ureas as kinase inhibitors” (RESPIVERT LIMITED, priority 2014, dated 2021)

What was measured:
p38MAPKγ (MAPK12) = target: T1, p38MAPKγ (MAPK12) (Homo sapiens, UniProt P53778); test: p38 MAPKγ enzyme inhibition (Z-LYTE FRET); format: biochemical; details: Table 2B, unit inferred; read-out: p38 MAPKγ (Enzyme Profile)
T1 construct: purchased Life Technologies
T1 sequence (P53778 1-367): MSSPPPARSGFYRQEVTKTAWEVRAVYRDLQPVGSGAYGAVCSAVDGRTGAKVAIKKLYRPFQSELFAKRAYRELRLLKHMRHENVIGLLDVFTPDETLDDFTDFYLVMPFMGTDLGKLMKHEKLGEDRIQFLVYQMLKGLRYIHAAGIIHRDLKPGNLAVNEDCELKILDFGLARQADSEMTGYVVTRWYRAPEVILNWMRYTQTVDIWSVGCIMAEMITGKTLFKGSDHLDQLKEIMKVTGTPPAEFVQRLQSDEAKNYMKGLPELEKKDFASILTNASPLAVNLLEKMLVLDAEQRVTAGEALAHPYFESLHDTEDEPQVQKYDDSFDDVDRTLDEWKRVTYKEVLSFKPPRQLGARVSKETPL
Procedure, shortened: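 Z-LYTE read-out: after 1 h protease development, only non-phosphorylated peptide is cleaved, and the donor/acceptor (coumarin/fluorescein) ratio reports phosphorylation. Beforehand, enzyme and compound (stock concentrations 0.0012–40 μg/mL) were preincubated 2 h at RT, then the kinase reaction ran 1 h at RT with peptide and ATP (8 μM and 400 μM stocks).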

[1] = target: T2, p38 MAPKα isoform (MAPK14) (Homo sapiens, UniProt Q16539); test: p38 MAPKα enzyme inhibition (Z-LYTE FRET); format: biochemical; details: Table 2B, unit inferred; read-out: p38 MAPKα (Enzyme Profile)
T2 construct: purchased Life Technologies
T2 sequence (Q16539 whole entry, canonical isoform): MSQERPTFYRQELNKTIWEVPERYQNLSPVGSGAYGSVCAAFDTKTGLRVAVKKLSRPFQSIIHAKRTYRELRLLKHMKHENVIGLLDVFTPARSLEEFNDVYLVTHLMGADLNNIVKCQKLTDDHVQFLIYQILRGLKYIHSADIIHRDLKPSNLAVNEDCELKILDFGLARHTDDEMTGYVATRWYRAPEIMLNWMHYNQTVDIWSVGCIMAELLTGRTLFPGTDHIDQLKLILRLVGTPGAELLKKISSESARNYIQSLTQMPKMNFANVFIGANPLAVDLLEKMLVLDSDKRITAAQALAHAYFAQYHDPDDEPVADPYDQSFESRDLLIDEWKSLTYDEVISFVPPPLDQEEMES
Procedure, shortened: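 Recombinant human MAPK14 (40 ng/mL stock) was preincubated 2 h at RT with compound (stock dilutions 0.0012-40 μg/mL). The Z-LYTE FRET read-out used a MAPKAP-K2-derived peptide, and protease development for 1 h cleaved only non-phosphorylated peptide. Phosphorylation was calculated from the coumarin/fluorescein emission ratio.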

Row | IC50 (p38MAPKγ (MAPK12)) [nM] | IC50 [1] [nM] | Structure (SMILES)
1 | 2510 | 110 | Cc1ccc(-n2nc(C(C)(C)C)cc2NC(=O)Nc2ccc(OCc3ccnc(Nc4cnc(C(=O)N5CCC(C)CC5)cn4)c3)c3ccccc23)cc1 [Example 185, 1-(3-(tert-butyl)-1-(p-tolyl)-1H-pyrazol-5-yl)-3-(4-((2-((5-(4-methylpiperidine-1-carbonyl)pyrazin-2-yl)amino)pyridin-4-yl)methoxy)naphthalen-1-yl) urea]
2 | 1930 | 31 | Cc1ccc(-n2nc(C(C)(C)C)cc2NC(=O)Nc2ccc(OCc3ccnc(Nc4cnc(C(=O)N5C[C@@H](C)O[C@@H](C)C5)cn4)c3)c3ccccc23)cc1 [Example 214, 1-(3-(tert-butyl)-1-(p-tolyl)-1H-pyrazol-5-yl)-3-(4-((2-((5-((2S,6R)-2,6-dimethyl-morpholine-4-carbonyl)pyrazin-2-yl)amino)pyridin-4-yl)methoxy)naphthalen-1-yl)urea]
3 | > 13700 | 35 | COc1ccc(-n2nc(C(C)(C)C)cc2NC(=O)Nc2ccc(OCc3ccnc(Nc4cnc(C(=O)N5CCCC5)cn4)c3)c3ccccc23)cc1F [Example 228, 1-(3-(tert-butyl)-1-(3-fluoro-4-methoxyphenyl)-1H-pyrazol-5-yl)-3-(4-((2-((5-(pyrrolidine-1-carbonyl)pyrazin-2-yl)amino)pyridin-4-yl)methoxy)naphthalen-1-yl)urea]
4 | 8410 | 207 | CCCc1cncc(Nc2cc(COc3ccc(NC(=O)Nc4cc(C(C)(C)C)nn4-c4ccc(C)c(F)c4)c4ccccc34)ccn2)n1 [Example 194, 1-(3-(tert-butyl)-1-(3-fluoro-4-methylphenyl)-1H-pyrazol-5-yl)-3-(4-((2-((6-propyl-pyrazin-2-yl)amino)pyridin-4-yl)methoxy)naphthalen-1-yl)urea]
5 | > 14100 | 6 | Cc1ccc(-n2nc(C(C)(C)C)cc2NC(=O)Nc2ccc(OCc3ccnc(Nc4cnc(C(=O)N5CCCCC5)cn4)c3)c3ccccc23)cc1 [Example 137, 1-(3-(tert-butyl)-1-(p-tolyl)-1H-pyrazol-5-yl)-3-(4-((2-((5-(piperidine-1-carbonyl)pyrazin-2-yl)amino)pyridin-4-yl)methoxy)naphthalen-1-yl)urea]
6 | 112 | 19 | Cc1cc(C)cc(-n2nc(C(C)(C)C)cc2NC(=O)Nc2ccc(OCc3ccnc(Nc4cnccn4)c3)c3ccccc23)c1 [Example 180, 1-(3-(tert-butyl)-1-(3,5-dimethylphenyl)-1H-pyrazol-5-yl)-3-(4-((2-(pyrazin-2-ylamino)pyridin-4-yl)methoxy)naphthalen-1-yl) urea]
7 | > 15200 | 52 | COc1ccc(-n2nc(C(C)(C)C)cc2NC(=O)Nc2ccc(OCc3ccnc(Nc4cnc(C)c(C)n4)c3)c3ccccc23)cc1C [Example 135, 1-(3-(tert-butyl)-1-(4-methoxy-3-methylphenyl)-1H-pyrazol-5-yl)-3-(4-((2-((5,6-dimethylpyrazin-2-yl)amino)pyridin-4-yl)methoxy)naphthalen-1-yl) urea]
8 | > 14600 | 46 | CCCNC(=O)c1cnc(Nc2cc(COc3ccc(NC(=O)Nc4cc(C(C)(C)C)nn4-c4ccc(C)cc4)c4ccccc34)ccn2)cn1 [Example 192, 5-((4-(((4-(3-(3-(tert-butyl)-1-(p-tolyl)-1H-pyrazol-5-yl)ureido)naphthalen-1-yl)oxy)methyl)pyridin-2-yl)amino)-N-propylpyrazine-2-carboxamide]
9 | 101 | < 0.4 | Cc1ccc(-n2nc(C(C)(C)C)cc2NC(=O)Nc2ccc(OCc3ccnc(Nc4cnc(C(=O)NCCN5CCCCC5)cn4)c3)c3ccccc23)cc1 [Example 79]
10 | 109 | 23 | COc1cc(-n2nc(C(C)(C)C)cc2NC(=O)Nc2ccc(OCc3ccnc(Nc4cnccn4)c3)c3ccccc23)ccn1 [Example 264, 1-(3-(tert-butyl)-1-(2-methoxypyridin-4-yl)-1H-pyrazol-5-yl)-3-(4-((2-(pyrazin-2-ylamino)pyridin-4-yl)methoxy)naphthalen-1-yl)urea]
11 | 219 | 29 | COc1cc(C)cc(-n2nc(C(C)(C)C)cc2NC(=O)Nc2ccc(OCc3ccnc(Nc4cnccn4)c3)c3ccccc23)c1 [Example 196, 1-(3-(tert-butyl)-1-(3-methoxy-5-methylphenyl)-1H-pyrazol-5-yl)-3-(4-((2-(pyrazin-2-ylamino)pyridin-4-yl)methoxy)naphthalen-1-yl)urea]
12 | 36 | 5.8 | COc1cccc(-n2nc(C(C)(C)C)cc2NC(=O)Nc2ccc(OCc3ccnc(Nc4cnc(CO)cn4)c3)c3ccccc23)c1 [Example 178, 1-(3-(tert-butyl)-1-(3-methoxyphenyl)-1H-pyrazol-5-yl)-3-(4-((2-((5-(hydroxy-methyl)pyrazin-2-yl)amino)pyridin-4-yl)methoxy)naphthalen-1-yl)urea]
13 | 2790 | 31 | Cc1ccc(-n2nc(C(C)(C)C)cc2NC(=O)Nc2ccc(OCc3ccnc(Nc4cnc5c(n4)CCC5)c3)c3ccccc23)cc1 [Example 130, 1-(3-(tert-butyl)-1-(p-tolyl)-1H-pyrazol-5-yl)-3-(4-((2-((6,7-dihydro-5H-cyclopenta [b]pyrazin-2-yl)amino)pyridin-4-yl)methoxy)naphthalen-1-yl)urea]
14 | > 13800 | 43 | COc1cc(C)cc(-n2nc(C(C)(C)C)cc2NC(=O)Nc2ccc(OCc3ccnc(Nc4cnc(C(=O)N5CCCC5)cn4)c3)c3ccccc23)c1 [Example 227, 1-(3-(tert-butyl)-1-(3-methoxy-5-methylphenyl)-1H-pyrazol-5-yl)-3-(4-((2-((5-(pyrrolidine-1-carbonyl)pyrazin-2-yl)amino)pyridin-4-yl)methoxy)naphthalen-1-yl)urea]
15 | 229 | 25 | Cc1ccc(-n2nc(C(C)(C)C)cc2NC(=O)Nc2ccc(OCc3ccnc(Nc4cnc(C)c(C5CC5)n4)c3)c3ccccc23)cc1 [Example 150, 1-(3-(tert-butyl)-1-(p-tolyl)-1H-pyrazol-5-yl)-3-(4-((2-((6-cyclopropyl-5-methyl-pyrazin-2-yl)amino)pyridin-4-yl)methoxy)naphthalen-1-yl)urea]
16 | 119 | 4.1 | Cc1ccc(-n2nc(C(C)(C)C)cc2NC(=O)Nc2ccc(OCc3ccnc(Nc4cnc(CO)cn4)c3)c3ccccc23)cc1C [Example 147, 1-(3-(tert-butyl)-1-(3,4-dimethylphenyl)-1H-pyrazol-5-yl)-3-(4-((2-((5-(hydroxymethyl)pyrazin-2-yl)amino)pyridin-4-yl)methoxy)naphthalen-1-yl) urea]
17 | 54 | 6.5 | COCCNC(=O)Cc1cncc(Nc2cc(COc3ccc(NC(=O)Nc4cc(C(C)(C)C)nn4-c4ccc(C)cc4)c4ccccc34)ccn2)n1 [Example 209, 2-(6-((4-(((4-(3-(3-(tert-butyl)-1-(p-tolyl)-1H-pyrazol-5-yl)ureido)naphthalen-1-yl)oxy)methyl)pyridin-2-yl)amino)pyrazin-2-yl)-N-(2-methoxyethyl)acetamide]
18 | 79 | 38 | Cc1ccc(-n2nc(C(C)(C)C)cc2NC(=O)Nc2ccc(OCc3ccnc(Nc4cncc(OCCO)n4)c3)c3ccccc23)cc1 [Example 121, 1-(3-(tert-butyl)-1-(p-tolyl)-1H-pyrazol-5-yl)-3-(4-((2-((6-(2-hydroxyethoxy)pyrazin-2-yl)amino)pyridin-4-yl)methoxy)naphthalen-1-yl)urea]
19 | 229 | 15 | COc1cc(-n2nc(C(C)(C)C)cc2NC(=O)Nc2ccc(OCc3ccnc(Nc4cnccn4)c3)c3ccccc23)ccc1C [Example 57]
20 | 115 | 5.5 | Cc1ccc(-n2nc(C(C)(C)C)cc2NC(=O)Nc2ccc(OCc3ccnc(Nc4cncc(N5CCOCC5)n4)c3)c3ccccc23)cc1 [Example 118, 1-(3-(tert-butyl)-1-(p-tolyl)-1H-pyrazol-5-yl)-3-(4-((2-((6-morpholinopyrazin-2-yl)amino)pyridin-4-yl)methoxy)naphthalen-1-yl) urea]
21 | 401 | 3.4 | Cc1ccc(-n2nc(C(C)(C)C)cc2NC(=O)Nc2ccc(OCc3ccnc(Nc4cncc(N)n4)c3)c3ccccc23)cc1 [Example 106, 1-(4-((2-((6-aminopyrazin-2-yl)amino)pyridin-4-yl)methoxy)naphthalen-1-yl)-3-(3-(tert-butyl)-1-(p-tolyl)-1H-pyrazol-5-yl)urea]
22 | 169 | 31 | CCCc1cncc(Nc2cc(COc3ccc(NC(=O)Nc4cc(C(C)(C)C)nn4-c4ccc(C)cc4)c4ccccc34)ccn2)n1 [Example 172, 1-(3-(tert-butyl)-1-(p-tolyl)-1H-pyrazol-5-yl)-3-(4-((2-((6-propylpyrazin-2-yl)amino)pyridin-4-yl)methoxy)naphthalen-1-yl) urea]
